Patent publication US12358901B2, “KV3 modulators” (priority 2018, dated 2025)

Experiments:
[1] = In vitro metabolic stability study in human hepatocytes; format: in vitro ADME; conditions: for In vitro CLint / Rate constant k: 0.5 uM, human cryopreserved hepatocytes, 37° C.; for Rate constant k: up to 180 min; for clearance in human hepatocytes (in words): compared to pyridine comparator compounds RE11 and RE13
Method: The objective of this study was to determine metabolic stability in mixed gender human cryopreserved hepatocytes. Testosterone and 7-Hydroxycoumarin were used as positive controls for Phase I and Phase II metabolism, respectively.
Incubation medium was prepared by combining William's medium E, HEPES buffer 1 M and L-glutamine 200 mM in the following proportions: 88%, 10% and 2%, respectively (440 mL, 50 mL and 10 mL, respectively). The medium obtained was bubbled with carbogen (5% CO2, 95% O2) for 30 minutes prior to use. Cryopreserved hepatocytes were thawed and suspended in incubation medium pre-warmed at 37° C. Cells were centrifuged, re-suspended in medium and counted by means of a haemocytometer (Burker's chamber). Cell viability was measured using the Trypan Blue exclusion test.
Test compounds were separately dissolved in DMF to obtain 50 mM stock solutions that were further diluted in water/acetonitrile 50/50 (v/v) to obtain the corresponding 50 uM working solutions. Testosterone and 7-Hydroxy-Coumarin were dissolved in DMF in order to obtain a 50 mM Testosterone solution and 5 mM 7-Hydroxy-Coumarin solution. These solutions were then diluted in the incubation medium in order to obtain a 1 mM Testosterone working solution and a 500 uM 7-Hydroxy-Coumarin working solution.
10 μL of each working solution, i.e. 50 uM test compound, 1 mM Testosterone and 500 uM of 7-Hydroxy-Coumarin were added to 990 μL of 0.5×10^6 cell suspensions in order to obtain the final concentrations of 0.5 uM, 10 uM and 5 uM, respectively. The concentration of the organic solvent in each incubation was constant and <1% (v/v).
Test compounds were separately incubated at 0.5 uM for 0, 5, 10, 15, 20, 30, 45, 60, 90, 120, 150 and 180 min (12 time points) with mixed gender human cryopreserved hepatocytes at 37° C. in a 24 well plate. At each time point a robotic handling processor aspirated 50 μL of incubation mixture from each well and dispensed it into a refrigerated 96 well plate, containing 100 μL of acetonitrile with the corresponding internal standard 150 ng/mL to stop the reaction. Then an aliquot of water (120 uL) was added to equilibrate the organic solvent content at 37%. Samples were centrifuged (ca. 3500 g for 10 minutes) prior to LC MS/MS analysis.
Metabolic stability was calculated from the peak area ratio of the remaining test compound with internal standard versus time.
The intrinsic clearance (CLint) was determined from the first order elimination constant k (min^−1) (obtained from GraphPad by plotting the natural logarithm of the peak area ratio of the remaining test item with internal standard versus time), using the actual volume of the incubation V (mL), the amount of hepatocytes in the incubation M (million cells) and the hepatocellularity number per g liver Hn (120 for human).
Values for CLint were expressed as mL/min/g liver.

[2] = system: Salmonella typhimurium (TA1535, TA1537, TA98 and TA100) and Escherichia coli WP2 uvrA (pKM101); assay: Ames testing (bacterial mutagenicity, with and without S9-mix); conditions: 5 to 5000 ug/plate, absence and presence of S9-mix

| Structure (SMILES) | In vitro CLint [1] [mL/min/g liver] | Rate constant k [1] [min⁻¹] | clearance in human hepatocytes (in words) [1] | Ames Result (compound) [2] |
| --- | --- | --- | --- | --- |
| CC[C@H]1NC(=O)N(c2cnc(Oc3ccc(C)c4c3C3(CC3)CO4)cn2)C1=O [Example 9, (5R)-5-ethyl-3-[5-(7-methylspiro[2H-benzofuran-3,1′-cyclopropane]-4-yl)oxypyrazin-2-yl]imidazolidine-2,4-dione] | 1.03 | 0.004 | low clearance | Non- mutagenic |
| CC[C@H]1NC(=O)N(c2cnc(Oc3cccc4c3C3(CC3)CO4)cn2)C1=O [Example 10, (5R)-5-ethyl-3-(5-spiro[2H-benzofuran-3,1′-cyclopropane]-4-yloxypyrazin-2-yl)imidazolidine-2,4-dione] | 0.70 | 0.003 | low clearance | Non- mutagenic |
| Cc1ccc(Oc2ncc(N3C(=O)NC(C)(C)C3=O)cn2)c2c1OCC21CC1 [RE5, reference compound] | 0.31 | 0.002 |  | Non- mutagenic |
| CC[C@H]1NC(=O)N(c2ccc(Oc3ccc(C)c4c3C3(CC3)CO4)nc2)C1=O [RE11, reference compound] | 3.58 | 0.02 |  | Non- mutagenic |
| CC[C@H]1NC(=O)N(c2ccc(Oc3cccc4c3C3(CC3)CO4)nc2)C1=O [RE13, (5R)-5-ethyl-3-(6-spiro[2H-benzofuran-3,1′-cyclopropane]-4-yloxy-3-pyridyl)imidazolidine-2,4-dione, reference compound] | 2.16 | 0.009 |  |  |
